Results from PMC12966373 (Nature Communications, 2026).

Legend:
[1] = Coacervate assembly via pH shift: size and number by microscopy; format: physicochemical; settings: peptide 0.5 mg/mL or higher
[2] = test system: B16-F10 murine melanoma cells; assay: Coacervate uptake in B16-F10 cells; format: cell-based, mouse; settings: particles pre-assembled at 0.5 mg/mL, diluted 1:10 to 1:3 in media; 4 h and 24 h
[3] = test system: primary human monocytes; assay: Coacervate uptake in primary human monocytes; format: cell-based; settings: particles pre-assembled at 0.5 mg/mL, diluted 1:10 to 1:3 in media; 4 h and 24 h
[4] = cited from earlier work
[5] = test system: U2OS cells; assay: Coacervate uptake and stability over 5 days in U2OS cells; format: cell-based, human; settings: particles pre-assembled at 0.5 mg/mL, diluted 1:10 to 1:3 in media; 4 h and 24 h

## GHGVYGHGVYGHGPYGHGPYGHGLYW [HBpep]
[1]
  average particle diameter: > 2 µm
[2]
  uptake by cells: highly efficient uptake
[3]
  uptake by cells: highly efficient uptake
[4]; pH 4.5
  solubility in acidic buffer: largely soluble
[4]; pH 7.4, standard conditions
  behaviour at physiological pH: phase separate
[5]
  uptake by cells: highly efficient uptake
